Results reported in ChEMBL document CHEMBL1201862, “PubChem BioAssay data set” (2004).
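Results reflect a 48-hour exposure of cells in 96-well plates to compound at five concentrations. Abbreviation: GI50, concentration required for 50% inhibition of growth.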 Calls of active or inactive are those of the source. Cut-off read from the data, not from the text of the source: active = GI50 up to about 1.1 µM and inactive = higher.

Experiments:
Assay in all cases: growth of human tumour cells (NCI), 48 h
SF-295 = tested on: SF-295
DMS-273 = tested on: DMS-273
RPMI-8226 = tested on: RPMI-8226
SN12C = tested on: SN12C
OVCAR-8 = tested on: OVCAR-8
KM12 = tested on: KM12
OVCAR-5 = tested on: OVCAR-5
DLD-1 = tested on: DLD-1
OVCAR-4 = tested on: OVCAR-4
HT-29 = tested on: HT-29
NCI-H226 = tested on: NCI-H226
TK-10 = tested on: TK-10
SK-MEL-5 = tested on: SK-MEL-5
COLO 205 = tested on: COLO 205
NCI-H522 = tested on: NCI-H522
SNB-19 = tested on: SNB-19
Malme-3M = tested on: Malme-3M
NCI-H23 = tested on: NCI-H23
786-0 = tested on: 786-0
ACHN = tested on: ACHN
XF498 = tested on: XF498
UACC-257 = tested on: UACC-257
M19-MEL = tested on: M19-MEL
LXFL 529 = tested on: LXFL 529
SNB-78 = tested on: SNB-78
UO-31 = tested on: UO-31
HCT-15 = tested on: HCT-15
SW-620 = tested on: SW-620
CCRF-CEM = tested on: CCRF-CEM
KM-20L2 = tested on: KM-20L2
HOP-92 = tested on: HOP-92
DMS-114 = tested on: DMS-114
SF-539 = tested on: SF-539
HCT-116 = tested on: HCT-116
HL-60 = tested on: HL-60
SR = tested on: SR
IGROV-1 = tested on: IGROV-1
SNB-75 = tested on: SNB-75
HOP-62 = tested on: HOP-62
MOLT-4 = tested on: MOLT-4
CAKI-1 = tested on: CAKI-1
HOP-18 = tested on: HOP-18
SK-MEL-28 = tested on: SK-MEL-28
A549 = tested on: A549
SF-268 = tested on: SF-268
OVCAR-3 = tested on: OVCAR-3
K562 = tested on: K562
NCI-H460 = tested on: NCI-H460
EKVX = tested on: EKVX
UACC-62 = tested on: UACC-62
A498 = tested on: A498
SK-MEL-2 = tested on: SK-MEL-2
U-251 = tested on: U-251
M14 = tested on: M14

Structure (SMILES): CCCC1=C(CC)C(C(=O)Nc2c(C)cccc2C)=NC(S)N1 (centres undefined)
- GI50 (SF-295): > 100 µM (inactive)
- GI50 (DMS-273): > 100 µM (inactive)
- GI50 (RPMI-8226): > 100 µM (inactive)
- GI50 (SN12C): > 100 µM (inactive)
- GI50 (OVCAR-8): > 100 µM (inactive)
- GI50 (KM12): > 100 µM (inactive)
- GI50 (OVCAR-5): > 100 µM (inactive)
- GI50 (DLD-1): > 100 µM (inactive)
- GI50 (OVCAR-4): > 100 µM (inactive)
- GI50 (HT-29): > 100 µM (inactive)
- GI50 (NCI-H226): > 100 µM (inactive)
- GI50 (TK-10): > 100 µM (inactive)
- GI50 (SK-MEL-5): > 100 µM (inactive)
- GI50 (COLO 205): > 100 µM (inactive)
- GI50 (NCI-H522): > 100 µM (inactive)
- GI50 (SNB-19): > 100 µM (inactive)
- GI50 (Malme-3M): > 100 µM (inactive)
- GI50 (NCI-H23): > 100 µM (inactive)
- GI50 (786-0): > 100 µM (inactive)
- GI50 (ACHN): > 100 µM (inactive)
- GI50 (XF498): > 100 µM (inactive)
- GI50 (UACC-257): > 100 µM (inactive)
- GI50 (M19-MEL): > 100 µM (inactive)
- GI50 (LXFL 529): > 100 µM (inactive)
- GI50 (SNB-78): > 100 µM (inactive)
- GI50 (UO-31): > 100 µM (inactive)
- GI50 (HCT-15): > 100 µM
- GI50 (SW-620): > 100 µM (inactive)
- GI50 (CCRF-CEM): > 100 µM (inactive)
- GI50 (KM-20L2): > 100 µM (inactive)
- GI50 (HOP-92): > 100 µM (inactive)
- GI50 (DMS-114): > 100 µM (inactive)
- GI50 (SF-539): > 100 µM (inactive)
- GI50 (HCT-116): > 100 µM (inactive)
- GI50 (HL-60): > 100 µM (inactive)
- GI50 (SR): > 100 µM (inactive)
- GI50 (IGROV-1): > 100 µM (inactive)
- GI50 (SNB-75): 59 µM (inactive)
- GI50 (HOP-62): > 100 µM (inactive)
- GI50 (MOLT-4): > 100 µM (inactive)
- GI50 (CAKI-1): > 100 µM (inactive)
- GI50 (HOP-18): > 100 µM (inactive)
- GI50 (SK-MEL-28): > 100 µM (inactive)
- GI50 (A549): > 100 µM (inactive)
- GI50 (SF-268): > 100 µM (inactive)
- GI50 (OVCAR-3): > 100 µM (inactive)
- GI50 (K562): > 100 µM (inactive)
- GI50 (NCI-H460): > 100 µM (inactive)
- GI50 (EKVX): > 100 µM (inactive)
- GI50 (UACC-62): > 100 µM (inactive)
- GI50 (A498): > 100 µM (inactive)
- GI50 (SK-MEL-2): > 100 µM (inactive)
- GI50 (U-251): > 100 µM (inactive)
- GI50 (M14): > 100 µM (inactive)
